Test results published in patent US8865134B2, “Chewing gum” (Med-Eq AS, priority 2005, dated 2014).

System: amylase enzyme
Assay: Amylase inhibition (salivary and intestinal amylase)
Format: biochemical
Conditions: amylase present in saliva and in the gut

In the case of `O=C(/C=C/c1ccc(O)c(O)c1)O[C@@H]1C[C@](O)(C(=O)O)C[C@@H](O)[C@H]1O` [chlorogenic acid], the “Effect on amylase enzyme” value is reported as “blocks the amylase enzyme”.
